Data taken from patent US20240156973A1, “OSTEOTROPIC COMPOSITIONS AND USES THEREOF” (Purdue Research Foundation, priority 2021, published 2024).

How the values were obtained:
[1] = test system: male C57BL/6 mice with surgically induced femoral fracture; test: Surgically induced femoral fracture, X-ray and ex vivo µCT of callus; assay type: in vivo
Method: FIG. 14A are representative μCT images of femurs 3 weeks post-surgery from 12-week-old C57BL/6 male mice that underwent a surgically created fracture and received 3×/wk injection of targeted SRT1720 (SRT1720-Aspartic Acid Oligopeptide described herein; SQ, 6 mg/kg/dose) or vehicle control.
FIG. 14B is a bar graph showing μCT analysis of the mineralized callus volume (BV/TV) for each treatment group ([…], 2, 6, and 20 mg/kg/dose),
FIG. 14C is a bar graph showing μtCT analysis of the callus trabecular thickness (Tb.Th) within the callus region for each treatment group.
(§1) Weekly X-rays were used to examine healing progression. Prior to euthanasia, mice underwent behavioral testing to measure evoked pain behaviors, Upon euthanasia, ex vivo μCT imaging (FIGS. 14A-14C) and analysis was completed to assess fracture callus size and composition.

[2] = test system: male C57BL/6 mice with surgically induced femoral fracture; test: Von Frey testing of evoked pain behavior after femoral fracture; assay type: in vivo
Method: FIG. 15 is bar graphs for 12-week-old C57BL/6 male mice that underwent a surgically created fracture and received 3×/wk injection of targeted SRT1720 (SQ, 2, 6, and 20 mg/kg/dose) or vehicle control.
as §1

[3] = molecular target: T1, Thrombopoietin Receptor (TPOR) (Homo sapiens, UniProt P40238); conditions: TPOR binding; cysteine-containing peptides in cyclic form; cited from earlier work
T1 sequence (P40238 26-491 limits assumed): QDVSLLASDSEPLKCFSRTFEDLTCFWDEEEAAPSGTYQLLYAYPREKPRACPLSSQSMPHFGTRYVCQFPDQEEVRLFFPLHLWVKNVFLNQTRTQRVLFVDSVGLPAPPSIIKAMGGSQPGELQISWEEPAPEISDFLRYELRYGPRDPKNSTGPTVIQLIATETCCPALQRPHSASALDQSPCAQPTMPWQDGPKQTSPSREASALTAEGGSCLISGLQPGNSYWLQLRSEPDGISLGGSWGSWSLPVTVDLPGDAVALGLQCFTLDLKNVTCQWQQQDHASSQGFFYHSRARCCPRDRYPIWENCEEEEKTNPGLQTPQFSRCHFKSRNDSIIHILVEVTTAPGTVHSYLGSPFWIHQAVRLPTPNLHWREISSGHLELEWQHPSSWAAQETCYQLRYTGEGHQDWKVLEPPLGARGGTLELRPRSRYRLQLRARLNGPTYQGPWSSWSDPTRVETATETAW

[4] = test system: female Swiss Webster mice with midshaft femur fractures; test: Midshaft femur fracture healing, micro-CT of fracture callus; assay type: in vivo; conditions: three weeks
Method: Fracture healing was assessed using micro-CT (Scanco Medical Ag or PerkinElmer). […] Morphometric parameters were quantified in an ROI that included just the fracture callus. […] Statistical analysis was performed using a one-way analysis of variance (ANOVA) and a Dunnett's post-hoc analysis with significance reported at the P value of 0.05. All animal experiments were performed in accordance with protocols approved by Purdue University's Institutional Animal Care and Use Committee (IACUC).

[5] = 6 mg/kg, 3x/week, 3 weeks, p<0.05
[6] = all doses (2, 6, 20 mg/kg, 3x/week), 3 weeks post-surgery

## O=C(Nc1ccccc1-c1cn2c(CN3CCNCC3)csc2n1)c1cnc2ccccc2n1 [SRT1720]
[1]; 6 mg/kg, 3x/week, 3 weeks
  bone healing: accelerated bone healing
[1]; [5]
  mineralized callus volume: significant increase in mineralized callus volume
[1]; all doses (2, 6, 20 mg/kg, 3x/week, 3 weeks)
  bone healing: improved healing
[2]; [5]
  paw withdrawal thresholds (evoked responses to tactile stimulus): more robust and significant improvement
[2]; [6]
  paw withdrawal thresholds (evoked responses to tactile stimulus): increased paw withdrawal thresholds

## N[C@@H](CCC(=O)O)C(=O)N[C@@H](CCC(=O)O)C(=O)N[C@@H](CCC(=O)O)C(=O)N[C@@H](CCC(=O)O)C(=O)N[C@@H](CCC(=O)O)C(=O)N[C@@H](CCC(=O)O)C(=O)N[C@@H](CCC(=O)O)C(=O)N[C@@H](CCC(=O)O)C(=O)N[C@@H](CCC(=O)O)C(=O)N[C@@H](CCC(=O)O)C(=O)N[C@@H](CSSCCOC(=O)N1CCN(Cc2csc3nc(-c4ccccc4NC(=O)c4cnc5ccccc5n4)cn23)CC1)C(=O)O [targeted SRT1720]
[2]; [6]
  paw withdrawal thresholds (evoked responses to tactile stimulus): improved mN forces

## GGCADGPTLREWISFCGG [AF12193]
[3]
  IC50: 60 nM

## GGCTLREWLHGGFCGG [AF12192]
[3]
  IC50: 200 nM

## GNADGPTLRQWLEGRRPKN [AF12359]
[3]
  IC50: 66 nM

## GRVBDQIMLSLGG [AF12191]
[3]
  IC50: 20000 nM

## IEGPTLRQWLAARA [AF12505]
[3]
  IC50: 2 nM

## IEGPTLRQWLAARA-K-β-Ala-IEGPTLRQWLAARA [AF13948]
[3]
  IC50: 0.5 nM

## Ile-Glu-Gly-Pro-Thr-Leu-Arg-Gln-Npa-Leu-Ala-Ala-Arg-Sar [TMP]
[4]; untargeted TMP daily 0.1, 1 and 10 nmol s.c.
  bone volume, dose-response shape: parabolic dosing window
[4]; untargeted TMP daily 3.3, 33 and 330 nmol/kg s.c.
  callus bone volume/total volume, dose-response shape: parabolic dosing window
[4]; untargeted TMP daily s.c.
  dose with maximum response on callus mineralization (bone volume): 1 nmol/day
  dose with maximum response on callus mineralization (bone volume/total volume): 33 nmol/kg

## LAIEGPTLRQWLHGNGPDT [AF12434]
[3]
  IC50: 20 nM

## TIKGFTLRQWLKSREHTS [AF12405]
[3]
  IC50: 50 nM
